The text below walks through data of PMC9705902, “Enzymatic Characterization and Comparison of Two Steroid Hydroxylases CYP154C3-1 and CYP154C3-2 from Streptomyces Species” (Journal of Microbiology and Biotechnology, 2021).

For orientation: Kd means the free concentration of one partner at which half of the binding sites on the other are occupied at equilibrium, for simple one-to-one binding.

The target in one assay is T1, CYP154C3-1 (Streptomyces sp., UniProt A0A2H4WK73).
T1 construct: full-length CDS 1,239 bp (412 residues), N-terminal Trx-His-S-enterokinase fusion from pET32a(+) kept, E. coli C41(DE3), ~65 kDa on SDS-PAGE (~45 kDa theoretical without fusion), heme protein
The experiment in a line: type I spectral shift titration (A390-A420), tight-binding quadratic fit. Further details: species or system Streptomyces sp. W2061. The text has this: type I spectral shift titration (A390-A420), tight-binding quadratic fit on CYP154C3-1

A further assay concerns the target T2, CYP154C3-2 (Streptomyces sp., UniProt A0A7S9IUH5).
T2 construct: full-length CDS 1,254 bp (417 residues), N-terminal Trx-His-S-enterokinase fusion from pET32a(+) kept, E. coli C41(DE3), ~65 kDa on SDS-PAGE (~45 kDa theoretical without fusion), heme protein
T2 sequence (A0A7S9IUH5 1-417): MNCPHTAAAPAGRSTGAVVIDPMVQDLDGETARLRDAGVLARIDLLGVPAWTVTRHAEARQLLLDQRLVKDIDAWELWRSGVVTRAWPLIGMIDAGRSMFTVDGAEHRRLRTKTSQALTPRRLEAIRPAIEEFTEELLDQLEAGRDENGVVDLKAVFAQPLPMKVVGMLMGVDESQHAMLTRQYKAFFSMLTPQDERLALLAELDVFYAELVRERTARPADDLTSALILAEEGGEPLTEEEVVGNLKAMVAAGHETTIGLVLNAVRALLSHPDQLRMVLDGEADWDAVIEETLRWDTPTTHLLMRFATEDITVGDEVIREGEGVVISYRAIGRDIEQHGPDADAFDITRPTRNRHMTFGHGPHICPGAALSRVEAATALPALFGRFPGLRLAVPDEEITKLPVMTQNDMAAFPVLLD
The description is as above. The text has this:
type I spectral shift titration (A390-A420), tight-binding quadratic fit on CYP154C3-2

T1 sequence (A0A2H4WK73 1-414): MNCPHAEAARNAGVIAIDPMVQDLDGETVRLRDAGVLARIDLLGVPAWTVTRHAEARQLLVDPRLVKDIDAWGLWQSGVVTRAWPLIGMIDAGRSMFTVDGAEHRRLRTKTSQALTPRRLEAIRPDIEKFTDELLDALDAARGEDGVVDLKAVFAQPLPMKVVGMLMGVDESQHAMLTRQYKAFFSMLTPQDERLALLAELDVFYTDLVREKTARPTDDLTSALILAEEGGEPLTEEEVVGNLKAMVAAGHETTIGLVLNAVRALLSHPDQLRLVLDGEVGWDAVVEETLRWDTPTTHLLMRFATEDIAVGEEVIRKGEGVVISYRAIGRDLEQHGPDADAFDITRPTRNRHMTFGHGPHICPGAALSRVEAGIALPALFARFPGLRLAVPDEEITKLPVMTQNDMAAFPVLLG

Regarding `C[C@]12CCC(=O)C=C1CC[C@@H]1[C@@H]2C(=O)C[C@]2(C)C(=O)CC[C@@H]12` [compound 1, Adrenosterone], the values for the Kd on CYP154C3-1 and on CYP154C3-2 were 0.318 ± 0.026 µM and 0.443 ± 0.035 µM, respectively.
`C[C@]12CC[C@H]3[C@@H](CCC4=CC(=O)CC[C@@H]43)[C@@H]1CC[C@@H]2O` [compound 6, Nandrolone]: the equilibrium dissociation constant (Kd) turned out to be 13.5 ± 2.62 µM on CYP154C3-1 and 6.58 ± 0.84 µM on CYP154C3-2.
Consider `C[C@]12CCC(=O)C=C1CC[C@@H]1[C@@H]2CC[C@]2(C)C(=O)CC[C@@H]12` [compound 2, Androstenedione], for which the results for the Kd at CYP154C3-1 and on CYP154C3-2 were 0.351 ± 0.033 µM and 0.475 ± 0.054 µM, respectively.
For the molecule `CC(=O)[C@H]1CC[C@H]2[C@@H]3CCC4=CC(=O)CC[C@]4(C)[C@H]3CC[C@]12C` [compound 9, Progesterone], the Kd on CYP154C3-2 was 0.409 ± 0.037 µM.
In the case of `C[C@]12C[C@H](O)[C@H]3[C@@H](CCC4=CC(=O)CC[C@@]43C)[C@@H]1CC[C@@H]2C(=O)CO` [compound 3, Corticosterone], the dissociation constant (Kd) was 14.1 ± 2.57 µM on CYP154C3-1 and 44.5 ± 3.97 µM on CYP154C3-2.
